{
  "source": "paper PMC4275348",
  "about": "(Molecular microbiology, 2014)",
  "key": {"LuxN [1]": {"molecular_target": "T1, LuxN (Vibrio campbellii, UniProt A7MRY4)", "assay_type": "cell-based, Vibrio harveyi", "conditions": "for reduction in light production / effect on light production (antagonist activity): 1 μM AHL with 20 nM AI-1, V. harveyi TL25; for mechanism of antagonism: IC50 values measured at various concentrations of AI-1"}, "luxN^L166A/H210N": {"molecular_target": "luxN^L166A/H210N (Vibrio campbellii, UniProt A7MRY4, H210N/L166A)", "conditions": "AHLs added at 1 μM"}, "LuxN^L166A": {"molecular_target": "LuxN^L166A (Vibrio campbellii, UniProt A7MRY4, L166A)"}, "luxN^S184I/S230P": {"molecular_target": "T2, luxN^S184I/S230P (Vibrio campbellii, UniProt A7MRY4, S184I/S230P)", "T2 sequence (A7MRY4 1-849 S184I/S230P)": "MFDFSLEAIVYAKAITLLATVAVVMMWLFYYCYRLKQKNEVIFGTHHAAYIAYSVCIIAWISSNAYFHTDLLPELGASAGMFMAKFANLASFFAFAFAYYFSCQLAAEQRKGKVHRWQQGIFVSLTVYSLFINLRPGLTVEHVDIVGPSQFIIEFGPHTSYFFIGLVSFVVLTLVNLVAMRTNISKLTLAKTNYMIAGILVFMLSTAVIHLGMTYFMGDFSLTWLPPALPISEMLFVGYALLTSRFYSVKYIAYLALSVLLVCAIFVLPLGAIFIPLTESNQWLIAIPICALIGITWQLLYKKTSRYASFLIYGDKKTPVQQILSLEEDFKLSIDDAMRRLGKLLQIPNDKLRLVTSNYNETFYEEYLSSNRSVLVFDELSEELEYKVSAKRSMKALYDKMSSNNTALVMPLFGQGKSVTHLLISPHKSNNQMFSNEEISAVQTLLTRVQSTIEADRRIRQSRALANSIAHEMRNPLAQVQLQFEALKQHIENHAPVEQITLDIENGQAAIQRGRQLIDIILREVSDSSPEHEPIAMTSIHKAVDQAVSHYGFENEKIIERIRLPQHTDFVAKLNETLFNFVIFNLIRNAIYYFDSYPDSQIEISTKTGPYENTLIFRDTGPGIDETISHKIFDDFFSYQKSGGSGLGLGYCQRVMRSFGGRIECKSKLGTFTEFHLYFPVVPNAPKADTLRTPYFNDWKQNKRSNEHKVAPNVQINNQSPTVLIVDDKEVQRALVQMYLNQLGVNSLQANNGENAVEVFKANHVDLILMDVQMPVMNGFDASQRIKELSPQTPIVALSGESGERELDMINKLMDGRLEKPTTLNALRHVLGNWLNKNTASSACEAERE", "assay": "Bioluminescence of V. harveyi XK006 carrying luxN S184I/S230P", "assay_type": "cell-based, Vibrio harveyi"}, "LuxN^G147D/Y194H": {"molecular_target": "T3, LuxN^G147D/Y194H (Vibrio campbellii, UniProt A7MRY4, G147D/Y194H)", "T3 sequence (A7MRY4 1-849 G147D/Y194H)": "T2 sequence (A7MRY4 1-849 S184I/S230P) with G147D, I184S, Y194H, P230S", "assay": "Bioluminescence of V. harveyi XK006 carrying luxN G147D/Y194H", "assay_type": "cell-based, Vibrio harveyi"}, "luxN^T159I/Y193K": {"molecular_target": "T4, luxN^T159I/Y193K (Vibrio campbellii, UniProt A7MRY4, N193K/T159I)", "T4 sequence (A7MRY4 1-849 T159I/N193K)": "T2 sequence (A7MRY4 1-849 S184I/S230P) with T159I, I184S, N193K, P230S", "assay": "Bioluminescence of V. harveyi XK006 carrying luxN T159I/Y193K", "assay_type": "cell-based, Vibrio harveyi"}, "LuxN [2]": {"molecular_target": "T1, LuxN", "conditions": "1 μM AHL; V. harveyi TL25"}, "LuxN^H210N": {"molecular_target": "T5, LuxN^H210N (Vibrio campbellii, UniProt A7MRY4, H210N)", "T5 sequence (A7MRY4 1-849 H210N)": "T2 sequence (A7MRY4 1-849 S184I/S230P) with I184S, H210N, P230S", "assay": "Bioluminescence of V. harveyi XK006 carrying luxN H210N", "assay_type": "cell-based, Vibrio harveyi", "conditions": "AHLs supplied at 10 μM"}},
  "note": "Residue numbers refer to the chain shown, from its start.",
  "data": [
    {"compound": "CCCCCCCC(O)CC(=O)N[C@H]1CCOC1=O", "note": "(stereo partly drawn) [3OH-C10 HSL]", "values": [
      {"measurement": "reduction in light production", "setting": "LuxN [1]", "result": 30, "unit": "fold"}
    ]},
    {"compound": "CCCC(=O)CC(=O)NC1CCOC1=O", "note": "(stereo not drawn) [3O-C6 HSL]", "values": [
      {"measurement": "light production", "setting": "luxN^L166A/H210N", "result": "detected"}
    ]},
    {"compound": "phenoxy-thiolactone [PTL]", "values": [
      {"measurement": "mechanism of antagonism", "setting": "LuxN [1]", "result": "behaved similarly to 3O-C12 HSL"}
    ]},
    {"compound": "CCCCCC(=O)CC(=O)NC1CCOC1=O", "note": "(stereo not drawn) [3O-C8 HSL]", "values": [
      {"measurement": "light production", "setting": "luxN^L166A/H210N", "result": "produced maximal light"},
      {"measurement": "detection (light production)", "setting": "LuxN^L166A", "result": "only modest detection"}
    ]},
    {"compound": "CCCC(O)CC(=O)N[C@H]1CCOC1=O", "note": "(stereo partly drawn) [3OH-C6 HSL]", "values": [
      {"measurement": "effect on light production (antagonist activity)", "setting": "LuxN [1]", "result": "little effect on light production"}
    ]},
    {"compound": "CCCCCCCCCC(=O)N[C@H]1CCOC1=O", "note": "[C10 HSL]", "values": [
      {"measurement": "mechanism of antagonism", "setting": "LuxN [1]", "result": "behaved similarly to 3O-C12 HSL"}
    ]},
    {"compound": "CCCCCCCCCCCC(=O)N[C@H]1CCOC1=O", "note": "[C12 HSL]", "values": [
      {"measurement": "response (dose-dependent light production)", "setting": "luxN^S184I/S230P", "result": "none responded"},
      {"measurement": "response (dose-dependent light production)", "setting": "LuxN^G147D/Y194H", "result": "none responded"},
      {"measurement": "response (dose-dependent light production)", "setting": "luxN^T159I/Y193K", "result": "none responded"}
    ]},
    {"compound": "CC(=O)CC(=O)NC1CCOC1=O", "note": "(stereo not drawn) [3O-C4 HSL]", "values": [
      {"measurement": "induction of light production", "setting": "LuxN [2]", "result": "did not induce light production"},
      {"measurement": "effect on light production (antagonist activity)", "setting": "LuxN [1]", "result": "did not decrease light production"}
    ]},
    {"compound": "CCCCCCCCCC(O)CC(=O)N[C@H]1CCOC1=O", "note": "(stereo partly drawn) [3OH-C12 HSL]", "values": [
      {"measurement": "reduction in light production", "setting": "LuxN [1]", "result": 100, "unit": "fold"}
    ]},
    {"compound": "CCCCCC(=O)N[C@H]1CCOC1=O", "note": "[C6 HSL]", "values": [
      {"measurement": "induction of light production", "setting": "LuxN^H210N", "result": "activated modest light production"},
      {"measurement": "light production", "setting": "luxN^L166A/H210N", "result": "detected"}
    ]}
  ]
}
